This test concerns T1, BmObc1 (oxalate biosynthetic component 1; His-BmObc1).
T1 construct: gene obc1
Type of test: biochemical, Burkholderia mallei.
In general, Km refers to the substrate concentration at which the rate is half of its maximum. Take `CC(=O)SCCNC(=O)CCNC(=O)[C@H](O)C(C)(C)COP(=O)(O)OP(=O)(O)OC[C@H]1O[C@@H](n2cnc3c(N)ncnc32)[C@H](O)[C@@H]1OP(=O)(O)O` [acetyl-CoA]: the Michaelis-Menten constant (Km) was 26.8 ± 2.3 µM. The value for `O=C(O)CC(=O)C(=O)O` [oxaloacetate] was 94.3 ± 9.2 µM. For `CCC(=O)SCCNC(=O)CCNC(=O)[C@H](O)C(C)(C)COP(=O)(O)OP(=O)(O)OC[C@H]1O[C@@H](n2cnc3c(N)ncnc32)[C@H](O)[C@@H]1OP(=O)(O)O` [propionyl-CoA], the Michaelis constant (Km) stood at 104 ± 12.7 µM.
